# Test results from US4288439A, “Anti-ulcer treatment method” (priority 1978, dated 1981).
# Key:
# [1] = stress-induced erosion test (Senay & Levine), anti-ulcer activity; type: in vivo; details: Dose 100 mg/kg
# Experimental: (§1) Anti-ulcer activity was determined by the stress-induced erosion test of Senay & Levine, Proc. Soc. Exp. Biol. Med., 124, 1221-3(1967) and anti-secretory activity by the test of H. Shay, D. Sun and H. Greenstein, Gastroenterology, 1954, 26,903-13 as exemplified by Beattie et al in J. Med Chem, 20,714 (1977).
# [2] = anti-secretory activity test (Shay et al); type: in vivo
# Experimental: as §1
SMILES,Stress Induced erosion (Senay & Levine) % inhibition [1] [%],Anti-Secretory (Shay et al) % change in volt ([2]; Dose 10 mg/kg) [%],Anti-Secretory (Shay et al) % change in volt ([2]; Dose 30 mg/kg) [%]
"C[n+]1ccccc1SCSc1cccc[n+]1C [Example 1, Methylene bis((1-methylpyridinium-2-yl)-thio) diiodide]",71,-32,-62
"C[n+]1ccccc1SCCSc1cccc[n+]1C [Example 2, 1,2-Di-((1-methylpyridinium-2-yl)thio)ethane dibromide]",67,,-48
